Where “and” joins values, the source holds several entries; their conditions need not be identical. Equal entries are not always repeated.
Test system: human (tumor) Hif2α (EPAS1) mRNA
Test: Hif2α knockdown in orthotopic RCC tumor bearing mice, single injection of RNAi trigger-delivery polymer conjugate, RT-qPCR (Table 7)
Format: in vivo
Settings: single tail vein injection, relative to isotonic glucose
In short: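 A single intravenous dose of Hif2α RNAi trigger–delivery polymer conjugate, or isotonic glucose vehicle, was given to nude mice with subcapsular A498-SEAP renal tumours (about 5–6 weeks old). At the indicated time, tumour RNA was assayed by biplex TaqMan qPCR against CycA, and relative expression was calculated by ΔΔCT versus vehicle.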

[1] = RNAi trigger 50 μg, polymer 064 125 μg
[2] = RNAi trigger 75 μg, polymer 064 187.5 μg
[3] = RNAi trigger 100 μg, polymer 064 250 μg

| Substance | Relative Expression day 4 (Hif2α mRNA in kidney tumor) [1] | Relative Expression day 4 (Hif2α mRNA in kidney tumor) [3] | further results |
| --- | --- | --- | --- |
| AD02861 (antisense UUUCAUGAAAUCGUUACGUUG; sense UAUACGUAACGAUUUCAUGAAAT; Hif2alpha RNAi agent antisense strand; modified_base 2,4,6,8,10,14 /mod_base = “2′-deoxy-2′-fluoro corresponding nucleoside”; modified_base 1,3,5,7,9,11,12,13,15,16,17,18,19,20,21 /mod_base = “2′-O-methyl corresponding nucleoside”; modified_base 2,3,20,21 /mod_base = “5′-phosphorothioate corresponding nucleotide”; Hif2alpha RNAi agent sense strand; modified_base 2 modified base = “2′-hydroxy corresponding nucleoside”; modified_base 10,11,12 /mod_base = “2′-deoxy-2′-fluoro corresponding nucleoside”; modified_base 1,3,4,5,6,7,8,9,13,14,15,16,17,18,19,20,21,22 /mod_base = “2′-O-methyl correspon) | 0.103 |  |  |
| AD02860 (antisense UUUCAUGAAAUCGUUACGUUG; sense ACGUAACGAUUUCAUGAAAT; Hif2alpha RNAi agent antisense strand; modified_base 2,3,8,10,14 /mod_base = “2′-deoxy-2′-fluoro corresponding nucleoside”; modified_base 1,4,5,6,7,9,11,12,13,15,16,17,18,19,20,21 /mod_base = “2′-O-methyl corresponding nucleoside”; modified_base 2,3,20,21 /mod_base = “5′-phosphorothioate corresponding nucleotide”; Hif2alpha RNAi agent sense strand; modified_base 7,8,9 /mod_base = “2′-deoxy-2′-fluoro corresponding nucleoside”; modified_base 1,2,3,4,5,6,10,11,12,13,14,15,16,17,18,19 /mod_base = “2′-O-methyl corresponding nucleoside”; modified_base 20 /mod_base = “3′-3′-linked nucleotide”; modi) | 0.165 |  |  |
| AD01296 (antisense TUUCAUGAAAUCGUUACGUUGGCUTT; sense UAUAUCAACGUAACGAUUUCAUGAAA; Hif2alpha RNAi agent antisense strand; modified_base 2,4,6,8,10,14,16,18,20 /mod_base = “2′-deoxy-2′-fluoro corresponding nucleoside”; modified_base 3,5,7,9,11,12,13,15,17,19,21,22,23,24 /mod_base = “2′-O-methyl corresponding nucleoside”; modified_base 2,3,25,26 /mod_base = “5′-phosphorothioate corresponding nucleotide”; Hif2alpha RNAi agent sense strand; modified_base 2,4 modified base = “2′-hydroxy corresponding nucleoside”; modified_base 6,8,10,12,14,15,16,18,20,22,24,26 /mod_base = “2′-deoxy-2′-fluoro corresponding nucleoside”; modified_base 1,3,5,7,9,11,13,17,19,21,23,25 /mod_base = “2′) |  |  | Relative Expression day 4 (Hif2α mRNA in kidney tumor) (RNAi trigger 80 μg, polymer 126 400 μg): 0.21 |
| AD01884 (antisense UUUCAUGAAAUCGUUACGUTT; sense ACGUAACGAUUUCAUGAAAT; Hif2alpha RNAi agent antisense strand; modified_base 2,4,6,8,10,14,16,18 /mod_base = “2′-deoxy-2′-fluoro corresponding nucleoside”; modified_base 1,3,5,7,9,11,12,13,15,17,19 /mod_base = “2′-O-methyl corresponding nucleoside”; modified_base 2,3,21 /mod_base = “5′-phosphorothioate corresponding nucleotide”; Hif2alpha RNAi agent sense strand; modified_base 1,3,5,7,8,9,11,13,15,17,19 /mod_base = “2′-deoxy-2′-fluoro corresponding nucleoside”; modified_base 2,4,6,10,12,14,16,18 /mod_base = “2′-O-methyl corresponding nucleoside”; modified_base 20 /mod_base = “3′-3′-linked nucleotide”; modified_base) | 0.203 | 0.091 | Relative Expression day 4 (Hif2α mRNA in kidney tumor) [2]: 0.227 |
| AD03258 (antisense AUUCAUGAAAUCGUUACGUUG; sense ACGUAACGAUUUCAUGAAUT; Hif2alpha RNAi agent antisense strand; modified_base 2,8,10,14 /mod_base = “2′-deoxy-2′-fluoro corresponding nucleoside”; modified_base 1,3,4,5,6,7,9,11,12,13,15,16,17,18,19,20,21 /mod_base = “2′-O-methyl corresponding nucleoside”; modified_base 2,3,20,21 /mod_base = “5′-phosphorothioate corresponding nucleotide”; Hif2alpha RNAi agent sense strand; modified_base 7,8,9 /mod_base = “2′-deoxy-2′-fluoro corresponding nucleoside”; modified_base 1,2,3,4,5,6,10,11,12,13,14,15,16,17,18,19 /mod_base = “2′-O-methyl corresponding nucleoside”; modified_base 20 /mod_base = “3′-3′-linked nucleotide”; modi) | 0.137 |  |  |
| AD03192 (antisense AGUAAAACAAUUGUGUACUUUAA; sense AAAGUACACAAUUGUUUUACT; Hif2alpha RNAi agent antisense strand; modified_base 2,4,6,8,10,14,18 /mod_base = “2′-deoxy-2′-fluoro corresponding nucleoside”; modified_base 1,3,5,7,9,11,12,13,15,16,17,19,20,21,22,23 /mod_base = “2′-O-methyl corresponding nucleoside”; modified_base 2,3,22,23 /mod_base = “5′-phosphorothioate corresponding nucleotide”; Hif2alpha RNAi agent sense strand; modified_base 5,7,9,10,11,13,15 /mod_base = “2′-deoxy-2′-fluoro corresponding nucleoside”; modified_base 1,2,3,4,6,8,12,14,16,17,18,19,20 /mod_base = “2′-O-methyl corresponding nucleoside”; modified_base 21 /mod_base = “3′-3′-linked nucleoti) | 0.286 |  |  |
| AD02692 (antisense UUUCAUGAAAUCGUUACGUUG; sense ACGUAACGAUUUCAUGAAAT; Hif2alpha RNAi agent antisense strand; modified_base 2,4,6,8,10,14,16,18 /mod_base = “2′-deoxy-2′-fluoro corresponding nucleoside”; modified_base 1,3,5,7,9,11,12,13,15,17,19,20,21 /mod_base = “2′-O-methyl corresponding nucleoside”; modified_base 2,3,20,21 /mod_base = “5′-phosphorothioate corresponding nucleotide”; Hif2alpha RNAi agent sense strand; modified_base 3,5,7,8,9,13,15,17 /mod_base = “2′-deoxy-2′-fluoro corresponding nucleoside”; modified_base 1,2,4,6,10,11,12,14,16,18,19 /mod_base = “2′-O-methyl corresponding nucleoside”; modified_base 20 /mod_base = “3′-3′-linked nucleotide”; modi) | 0.092 |  | Relative Expression day 4 (Hif2α mRNA in kidney tumor) [2]: 0.089 and 0.121 |
| AD01890 (antisense UGUAAAACAAUUGUGUACUTT; sense AGUACACAAUUGUUUUACAT; Hif2alpha RNAi agent antisense strand; modified_base 2,4,6,8,10,13,14,16,18 /mod_base = “2′-deoxy-2′-fluoro corresponding nucleoside”; modified_base 1,3,5,7,9,11,12,15,17,19 /mod_base = “2′-O-methyl corresponding nucleoside”; modified_base 2,3,21 /mod_base = “5′-phosphorothioate corresponding nucleotide”; Hif2alpha RNAi agent sense strand; modified_base 1,3,5,8,9,11,13,15,17,19 /mod_base = “2′-deoxy-2′-fluoro corresponding nucleoside”; modified_base 2,4,6,7,10,12,14,16,18 /mod_base = “2′-O-methyl corresponding nucleoside”; modified_base 20 /mod_base = “3′-3′-linked nucleotide”; modified_base) |  | 0.256 |  |
| AD01889 (antisense UCUAGCAACAAAACCUUAATT; sense UUAAGGUUUUGUUGCUAGAT; Hif2alpha RNAi agent antisense strand; modified_base 2,4,6,9,10,12,14,15,18 /mod_base = “2′-deoxy-2′-fluoro corresponding nucleoside”; modified_base 1,3,5,7,8,11,13,16,17,19 /mod_base = “2′-O-methyl corresponding nucleoside”; modified_base 2,3,21 /mod_base = “5′-phosphorothioate corresponding nucleotide”; Hif2alpha RNAi agent sense strand; modified_base 3,4,7,9,13,15,17 /mod_base = “2′-deoxy-2′-fluoro corresponding nucleoside”; modified_base 1,2,5,6,8,10,11,12,14,16,18,19 /mod_base = “2′-O-methyl corresponding nucleoside”; modified_base 20 /mod_base = “3′-3′-linked nucleotide”; modified_base) |  | 0.282 |  |
